Measurements: PubChem BioAssay (NCI)
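Grown in 96-well plates, cells were treated for 48 hours with each compound at five concentrations. Insufficient inhibition: endpoint recorded as highest concentration tested. GI50 marks 50% less growth. The concentration for full growth arrest is given as TGI.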

Assays:
Assay in all cases: inhibition of tumour cell growth, NCI panel, 48 h
LOX IMVI melanoma = test system: LOX IMVI melanoma
SF-539 CNS = test system: SF-539 CNS
NCI-H522 lung = test system: NCI-H522 lung
EKVX NSCLC = test system: EKVX NSCLC
MCF7 breast = test system: MCF7 breast
UACC-257 melanoma = test system: UACC-257 melanoma
RXF 393 renal = test system: RXF 393 renal
SN12C renal = test system: SN12C renal
UACC-62 melanoma = test system: UACC-62 melanoma
UO-31 renal = test system: UO-31 renal
TK-10 renal = test system: TK-10 renal
SNB-19 CNS = test system: SNB-19 CNS
HCT-116 colon = test system: HCT-116 colon
SW-620 colon = test system: SW-620 colon
NCI-H460 lung = test system: NCI-H460 lung
HS 578T breast = test system: HS 578T breast
HOP-92 NSCLC = test system: HOP-92 NSCLC
MALME-3M melanoma = test system: MALME-3M melanoma
CCRF-CEM leukemia = test system: CCRF-CEM leukemia
SF-295 CNS = test system: SF-295 CNS
NCI-H23 lung = test system: NCI-H23 lung
IGROV1 ovarian = test system: IGROV1 ovarian
SK-OV-3 ovarian = test system: SK-OV-3 ovarian
PC-3 prostate = test system: PC-3 prostate
A549 NSCLC = test system: A549 NSCLC
MOLT-4 leukemia = test system: MOLT-4 leukemia
KM12 colon = test system: KM12 colon
CAKI-1 renal = test system: CAKI-1 renal
SK-MEL-2 melanoma = test system: SK-MEL-2 melanoma

SMILES: Cc1sc(C(=O)c2cncnc2N[C@@H]2C[C@H](COS(N)(=O)=O)[C@@H](O)C2)cc1[C@@H]1NCCc2ccc(Cl)cc21
- GI50 (LOX IMVI melanoma): 0.0959 µM
- TGI (LOX IMVI melanoma): 15.6 µM
- GI50 (SF-539 CNS): 1.48 µM
- TGI (SF-539 CNS): 20.3 µM
- GI50 (NCI-H522 lung): 3.49 µM
- TGI (NCI-H522 lung): 25.9 µM
- GI50 (EKVX NSCLC): 8.88 µM
- TGI (EKVX NSCLC): 25.7 µM
- GI50 (MCF7 breast): 0.0138 µM
- TGI (MCF7 breast): 17.3 µM
- GI50 (UACC-257 melanoma): 0.0793 µM
- TGI (UACC-257 melanoma): 20.1 µM
- GI50 (RXF 393 renal): 6.35 µM
- TGI (RXF 393 renal): 22 µM
- GI50 (SN12C renal): 9.85 µM
- TGI (SN12C renal): 24.5 µM
- GI50 (UACC-62 melanoma): 3.75 µM
- TGI (UACC-62 melanoma): 21.7 µM
- GI50 (UO-31 renal): 3.66 µM
- TGI (UO-31 renal): 24.6 µM
- GI50 (TK-10 renal): 12.9 µM
- TGI (TK-10 renal): 26.8 µM
- GI50 (SNB-19 CNS): 14.8 µM
- TGI (SNB-19 CNS): 28.8 µM
- GI50 (HCT-116 colon): 1.31 µM
- TGI (HCT-116 colon): 22.6 µM
- GI50 (SW-620 colon): 7.63 µM
- TGI (SW-620 colon): 24.5 µM
- GI50 (NCI-H460 lung): 0.466 µM
- TGI (NCI-H460 lung): 20.6 µM
- GI50 (HS 578T breast): 6.08 µM
- TGI (HS 578T breast): 44 µM
- GI50 (HOP-92 NSCLC): 0.0783 µM
- TGI (HOP-92 NSCLC): 12.9 µM
- GI50 (MALME-3M melanoma): 0.0394 µM
- TGI (MALME-3M melanoma): 15.5 µM
- GI50 (CCRF-CEM leukemia): 0.0801 µM
- TGI (CCRF-CEM leukemia): 20.1 µM
- GI50 (SF-295 CNS): 11 µM
- TGI (SF-295 CNS): 23.2 µM
- GI50 (NCI-H23 lung): 11.8 µM
- TGI (NCI-H23 lung): 27 µM
- GI50 (IGROV1 ovarian): 11 µM
- TGI (IGROV1 ovarian): 25.7 µM
- GI50 (SK-OV-3 ovarian): 2.65 µM
- TGI (SK-OV-3 ovarian): 25.2 µM
- GI50 (PC-3 prostate): 5.44 µM
- TGI (PC-3 prostate): 24.5 µM
- GI50 (A549 NSCLC): 2.21 µM
- TGI (A549 NSCLC): 22.3 µM
- GI50 (MOLT-4 leukemia): 0.59 µM
- TGI (MOLT-4 leukemia): 23.4 µM
- GI50 (KM12 colon): 13.1 µM
- TGI (KM12 colon): 28.3 µM
- GI50 (CAKI-1 renal): 1.63 µM
- TGI (CAKI-1 renal): 25.5 µM
- GI50 (SK-MEL-2 melanoma): 5.58 µM
- TGI (SK-MEL-2 melanoma): 23.9 µM
